In patent US20160082133A1, “CHEMICAL EXCHANGE SATURATION TRANSFER (CEST) BASED MRI USING REPORTER GENES AND SUBSTRATES AND METHODS THEREOF” (The Johns Hopkins University, priority 2013, published 2016):
Several values for one entry are separate records, joined by “and”; a condition that tells them apart may be missing. Identical values can stand only once.

Assays:
[1] = CEST MRI of CDase substrates and products at 9.4 T; format: physicochemical; conditions: pH 7.4, 37° C.
Text: All MR images were acquired with a 9.4T Bruker Avance system equipped with a 15 mm sawtooth RF coil. A modified RARE sequence (TR=6.0 sec, effective TE=43.2 ms, RARE factor=16, slice thickness=0.7 mm, FOV=14×14 mm, matrix size=128×64, resolution=0.11×0.22 mm^2, and NA=2) including a magnetization transfer (MT) module (one CW pulse, B=[…] (150 Hz), 3 sec) was used to acquire CEST-weighted images from −6 ppm to 6 ppm (step=0.2 ppm) around the water resonance (0 ppm). The absolute water resonant frequency shift was measured using a Water Saturation Shift Reference (WASSR) (Kim, M. et al. Magnetic Resonance in Medicine 2009, 61, 1441) method modified (Liu, G. et al. Contrast Media Mol Imaging 2010, 5, 162) with Lorentzian analysis. […]
Data processing was performed using custom-written scripts in MATLAB (Mathworks, Waltham, Mass.). CEST spectra were calculated from the mean of an ROI placed over each sample after B0 correction of the contrast on a per voxel basis. The CEST signal was quantified using MTRasym at specific offsets of interest (i.e., &ω=+2 ppm for cytosine or +2.4 ppm for 5FC) using the definition: MTRasym=(S^−˜ω−S^+″ω)/S0, where and s[−˜ω, +Aω] is the water signal intensity in the presence of a saturation pulse at offsets ±Aω, and S0 is water signal intensity in the absence of a saturation pulse.

[2] = Quantification of exchange rates (QUESP, Bloch equation fitting); format: physicochemical; conditions: 11.7 T, pH 7.4, 37° C.; for kex, quantified exchange rates of imino and water protons: 5 ppm for 1-3, 6 ppm for dT
Procedure: Exchange rates were quantified with the saturation power dependent CEST approach (QUESP) and Bloch equation fitting (McMahon et al., Magn. Res. Med. 2006, 55, 836). For each sample, the MTRasym was measured at the imino resonance frequency for CEST saturation fields of 43, 85, 128, 170, 213, 255, 340, and 426 Hz while the saturation pulse duration was kept constant at 4000 ms. The Bloch equations were then fit numerically to these MTRasym values using MATLAB (Mathworks), and the exchange rates (kex, s^−1) were determined from the fits. Errors (95% confidence limits) were estimated using the F statistic.

[3] = In vitro CEST-MRI of thymidine analogues at 11.7 T; format: physicochemical; conditions: pH 7.4, 37° C.; for MTRasym (8.5 Hz) / MTRasym (170 Hz) / MTRasym (213 Hz): at 5 ppm for 20 nM agent (so in the source); for MTRasym (128 Hz): at 5 ppm for 20 mM agent
Procedure: All compounds were dissolved at a concentration of 20 mM in phosphate-buffered saline (PBS) (pH=7.4) and placed in microcapillaries, as described previously.^17 CESTMRI experiments were performed on a vertical 11.7 T scanner (Bruker Avance system) at 37° C. A modified RARE sequence (TR/TE=10 000/9.4 ms; RARE factor=16; 1 mm slice thickness; FOV=11×11 mm^2; matrix size=64×32; resolution=0.17×0.34 mm^2; and NA=2) including a magnetization transfer (MT) module ([…]) was used to acquire CEST-weighted images from −8 to +8 ppm with increments of 0.2 ppm around the water resonance, which was assigned to be at 0 ppm. Pixel-based B0 correction was used as described before using the same parameters as above except for TR=1500 ms and B1/tsat=21 Hz/500 ms, with a sweep range from −2 to +2 ppm (0.1 ppm steps). Data processing was performed using custom-written scripts in MATLAB (Mathworks). Mean CEST spectra were plotted from an ROI for each sample, after B0 correction. MTRasym=100×(S^−Aω−S^AωA/^‘−’0)/3 was computed at different offsets Aω.

HEK293 = assay: CEST MRI of HEK293 cells expressing hPRM1 (lysate and encapsulated live cells); format: cell-based, Human
Procedure: CEST experiments were performed on an 11.7T Bruker Avance system, as previously described. A modified RARE (TR/TE=6000/9.4 ms), including a magnetization transfer module (B1=4.7 μT/4000 ms), was used to acquire CEST-weighted images. The absolute water resonant frequency shift was measured using a modified WASSR method, with the same parameters as in CEST imaging, except for TR=1.5 sec and a saturation pulse of B1=0.5 μT/250 ms, which was used for B0 correction for each voxel using MatLab. MTR asymmetry (MTRasym)=100×(S−Δω−S+Δω)/S0 was computed at different offsets, Δω. Human Embryonic Kidney cells (HEK293), were engineered to express the gene encoding to hPRM1 (NM_002761; 293^hPRM1). Non-expressing wild type cells (293^wt) were used as controls. The cells were lysed or encapsulated in alginate-based microcapsules using Ba^2+ ions as the gelating cation (Barnett, B. P., et al. Nat Protoc 6, 1142-1151 (2011)).

293^HSV1-tk cells = assay: Cell viability assay (CellTiter-Blue); format: cell-based, human; conditions: 0.5 mg/ml
Procedure: Cell viability assay was performed using CellTiter-Blue® Cell Viability Assay (Promega), which provides a fluorometric method for estimating the number of viable cells present in 96 well plate. HEK293FT cells transduced with the HSV1-tk (293^HSV1-tk) were plated in 96 well-plate (10,000 cells/well). Cells were incubated for a periods of 4 hours and 24 hours in the presence of ganciclovir (GCV, 0.5 mg/ml in cell medium), compound 2 (0.5 mg/ml in cell medium) and medium (as control). CellTiter-Blue® Reagent was added (20 μl/well) and plate was incubated for 3 hours at 37° C. Finally, fluorescence 560/590 nm was recorded and values obtained from probe containing wells (GCV or 2, N=4) were normalized to values of non-treated cells (control wells) to determine the % of viable cells after the incubation period.

[4] = CEST-MRI of LRRASLG and LRRApSLG peptides in PBS; format: physicochemical; conditions: 1 mM, PBS pH 7.4, 11.7T
Procedure: Peptides were synthesized by NeoBioSci (Cambridge, Mass.) and provided as lyophilized powder. All compounds were dissolved in 10 mM PBS (pH 1/4 7.4) at the indicated concentration.
(§1) CEST MRI experiments were performed on a vertical 11.7T Bruker Avance system. Approximately […] of each sample was loaded into a capillary tube and up to 20 samples were scanned at each session to minimize variability as described before (Liu G et al., High-throughput screening of chemical exchange saturation transfer MR contrast agents. Contrast Media Mol Imaging 2010; 5:162-17). […] To account for inhomogeneity of the B0 field, the absolute water resonant frequency shift was measured using a modified water saturation shift reference method (Kim M et al., Water saturation shift referencing (WASSR) for chemical exchange saturation transfer (CEST) experiments. Magn Reson Med 2009; 61:1441-1450), using the same parameters as in CEST imaging except pulse repetition time 1/4 1.5 s, saturation pulse 1/4 500 ms, B1 1/4 […], and a sweep range from −2 to +2 ppm (step 1/4 0.1 ppm). […] After B0 correction for each voxel using the water saturation shift reference data, mean CEST-spectra were calculated from a region of interest (ROI) for each sample. […]

PKA = biological target: T1, PKA (Mus musculus, UniProt P05132); assay: Phosphorylation assay with recombinant PKA read out by CEST MRI; format: biochemical; conditions: 1 mM peptide
T1 construct: purchased New England Biolabs
Procedure: as §1, with “sample. The MTR asymmetry was quantified as MTRasym 1/4 (S^−Δω−S^+Δω)/S^0 (S^−Δω and S^+Δω are the water peak differentials due to saturation at the target frequency +ω and its negative −ω, respectively. S^0 is the unsaturated signal).” for “sample.”

**Q.** For O=c1[nH]cc(F)c(=O)[nH]1 [5FU, 5-fluorouracil], which “MTRasym (CEST contrast)” value [1] is on record?
**A.** The value was “only limited and non-frequency-specific MTRasym”.

**Q.** With O=c1cc[nH]c(=O)[nH]1 [uracil] as the molecule, how does the “MTRasym (CEST contrast)” value [1] read?
**A.** The value was “only limited and non-frequency-specific MTRasym”.

**Q.** Which “kex of the imino proton” value [2] does the source give for CC1(O)C(=O)NC(=O)N([C@H]2C[C@H](O)[C@@H](CO)O2)C1O (stereo partly shown) [Compound 3, thymidine glycol] here?
**A.** Its value is 3.7±0.2×10^3 s^−1 and 5.1±0.7×10^3 s^−1.

**Q.** And the “kex, quantified exchange rates of imino and water protons” value [2]?
**A.** Its value is 3.8 ± 0.2 ×10^3 s^−1.

**Q.** And the “MTRasym (8.5 Hz)” value [3]?
**A.** The value was 3%.

**Q.** What about the “MTRasym (170 Hz)” value [3] of the same molecule?
**A.** The value was 11%.

**Q.** And the “MTRasym (213 Hz)” value [3]?
**A.** Its value is 16%.

**Q.** And the “MTRasym (128 Hz)” value [3]?
**A.** The value was 7%.

**Q.** With “hPRM1: arginine-rich protein human protamine-1 (NM_002761) expressed as CEST reporter (ARYRCCRSQSRSRYYRQRQRSRRRRRRSCQTRRRAMRCCRPRYRPRCRRH; UniProt P04553 2-51, looked up)” as the molecule, how does the “CEST contrast of encapsulated live cells compared to non-expressing wild type cells” value (HEK293; alginate microcapsules, 1.3 ppm and 3.6 ppm offsets) read?
**A.** The value was “higher”.

**Q.** What about the “CEST contrast of 293^hPRM1 lysate compared to wild type lysate” value (HEK293; cell lysate) of the same molecule?
**A.** The value was “significantly higher CEST contrast”.

**Q.** What does the source list for Nc1nc(O)c2ncn(COC(CO)CO)c2n1 [GCV, ganciclovir, reference compound]?
**A.** toxic effect on 293^HSV1-tk cells (293^HSV1-tk cells; 4 and 24 hours): cytotoxic effect; cells killed (293^HSV1-tk cells; 24 hour, 293^HSV1-tk): about 50%

**Q.** With O=c1[nH]c(=O)n([C@H]2C[C@H](O)[C@@H](CO)O2)cc1Cl [Compound 4, 5-chloro-2′-deoxyuridine] as the molecule, how does the “CEST contrast from the imino proton” value [3] read?
**A.** Its value is “No CEST contrast was observed”.

**Q.** What does the source list for Cc1cn([C@H]2C[C@H](O)[C@@H](CO)O2)c(=O)[nH]c1=O [dT, Thymidine, reference compound]?
**A.** kex of the imino proton [2]: 3.7±0.2×10^3 s^−1; kex, quantified exchange rates of imino and water protons [2]: 5.1 ± 0.7 ×10^3 s^−1; MTRasym (8.5 Hz) [3]: 2%; MTRasym (170 Hz) [3]: 10%; MTRasym (213 Hz) [3]: 15%; MTRasym (128 Hz) [3]: 5%

**Q.** What does the source list for LRRASLG?
**A.** CEST contrast of unphosphorylated versus phosphorylated peptide [4]: significantly higher contrast; decrease in CEST contrast on incubation with recombinant PKA (PKA; 4 mM ATP, 30° C.): > 50%; time in which the majority of the signal difference is generated (PKA; recombinant PKA): ≤ 15 min
